Assay results from paper PMC7600788, “Sequence Permutation Generates Peptides with Different Antimicrobial and Antibiofilm Activities” (Pharmaceuticals, 2020).
No end group written: not given here.

Assays:
S. aureus USA300 LAC [1] = assay: Membrane depolarization, DiBAC4(3); assay type: cell-based, Staphylococcus aureus; conditions: 12.5 µM
Protocol: Bacteria surfaces are negative and cationic peptides are able to neutralize the negative charge, thereby reducing membrane potential. To test this possibility, we evaluated the peptides against S. aureus USA300 LAC using a fluorescent indicator dye, the DiBAC4(3) (Figure 5).
The overnight culture of S. aureus USA300 LAC was grown in TSB media to the exponential phase. Cells were then pelleted and washed with PBS twice, and re-suspended in twice the volume of PBS containing 25 mM glucose for 15 min at 37 °C. For membrane depolarization measurements, 250 nM (final concentration) of the dye DiBAC4(3) (bis-(1,3-dibutylbarbituric acid) trimethine oxonol (ANASPEC, Fremont, CA, USA) was added, and vortexed gently. Ninety microliters of the energized bacteria solution were then added in a 96-well microtiter plate (Corning COSTAR). The plate was immediately placed into a FLUOstar Omega (BMG LABTECH Inc., Cary, NC, USA) microplate reader and fluorescence was measured for 20 min. Once the readings are stabilized, 10 μL of peptide solution were added and the fluorescence readings were continued for another 40 min. Measurements were done at an excitation and emission wavelengths of 485 and 520 nm, respectively. Triton X-100 (0.1%) was included as a positive control.

S. aureus USA300 LAC [2] = assay: Inhibition of biofilm attachment (XTT); assay type: cell-based, Staphylococcus aureus; conditions: 12.5 µM; 1 h, XTT
Text: Antimicrobial effects of the peptides are different on diverse forms of bacteria. The free and motile forms cultivated in laboratories are the planktonic bacteria onto which the peptides and antibiotics can have direct effects. However, the activity of the microbicides can be reduced to the biofilm forms where bacteria are less exposed and hidden inside the shield. The development of the biofilms starts with the attachment of the individual cells on the substratum followed by biofilm growth and maturation into more solid biomass. We tested the ability of WW295 and WW298 in fighting the biofilms of S. aureus USA300 LAC at the two stages. […] These 96-well commercial plates were pre-treated commercially with tissue culture to enhance cell adhesion.
This experiment was performed to measure the ability of the peptide to inhibit bacterial attachment, the initial step for biofilm formation. In short, an overnight culture of S. aureus USA300 was grown in TSB media to an optical density (600 nm) of ∼1.0. […] Live cells in the biofilms were then quantitated using XTT [2,3-bis(2-methyloxy-4-nitro-5-sulfophenyl)-2H-tertazolium-5-carboxanilide] assay by following the manufacturer’s instructions with modifications. […] Absorbance at 450 nm (only media with XTT containing wells served as the blank) was obtained using a Chromate^TM microtiter plate reader. […]

S. aureus USA300 LAC [3] = assay: Disruption of 24 h established biofilms (XTT); assay type: cell-based, Staphylococcus aureus; conditions: 24 h treatment
Protocol: We also compared the effects of the peptides on established biofilms (24 h). […] When cells are alive (in the absence of peptide), the cell-permeant calcein-AM dye could enter the cells and gave green color as a consequence of the removal of acetoxymethyl (AM) esters by intracellular esterase (Figure 7A). When the cells were dead due to membrane damage by the peptide, the red dye ethidium homodimer (non-membrane permeable) could enter the cell and become red by binding to nucleic acids (Figure 7B).
The antibiofilm activity of the peptide against 24 h established biofilms was evaluated as previously described. In short, S. aureus USA300 LAC (10^5 CFU/mL) was made from exponential phase bacteria in TSB media and 180 μL were distributed to each well of the microtiter plate (Corning Costar Cat No. 3595, Amsterdam, The Netherlands). The plates were incubated at 37 °C for 24 h to form a biofilm. Culture treated with water served as a positive control while media without bacterial inoculation served as the negative control. Media were then pipetted out and the attached biofilms were washed with 1× PBS to remove the planktonic bacteria. Each well of the plate was then filled with 20 μL of 10× peptide solution and 180 μL of fresh TSB media and the plates were further incubated at 37 °C for 24 h. Media were then pipetted out and the wells were washed with 1× PBS to remove planktonic cells. The live cells in biofilms were estimated by XTT assay as mentioned above.

E. coli ML35p = assay: Simultaneous outer and inner membrane permeation (nitrocefin / ONPG); assay type: cell-based, Escherichia coli; conditions: 3.1 µM
Text: To confirm the mechanism of action, we also performed membrane permeation using a reporter strain of E. coli ML35p. This strain enabled simultaneous monitoring of membrane permeation of both the inner and outer membranes of Gram-negative bacterium E. coli. Both WW295 and WW298 were included in the experiment. […] This is indicated by the sharp development of absorbance at 490 nm for nitrocefin (panel A) and at 420 nm for ONPG (panel B).
The E. coli ML-35p strain was utilized to probe the permeation of both the outer membrane (OM) and inner membrane (IM). This strain was engineered to have two membrane reporters. Nitrocefin is used for detection of OM permeabilization. Nitrocefin is excluded from the periplasm. […] The chromogenic cleavage product was spectrophotometrically monitored at 490 nm. […] However, permeabilization of the IM helps ONPG to enter cytoplasm and get cleaved by cytoplasmic β-galactosidase into o-nitrophenol, which can be detected spectrophotometrically at 420 nm. […] Absorbances at both 490 and at 420 nm were monitored using FLUOstar Omega (BMG, Labtech, NC, USA) simultaneously. After shaking at 100 rpm, readings were taken every 2 min for a total of 40 min at 37 °C. Data were analyzed using the MARS data analysis software provided by the manufacturer and representative plots were made using the GraphPad Prism 7 software.

P. aeruginosa PAO1 = assay type: cell-based, Pseudomonas aeruginosa; conditions: PAO1
Protocol: (§1) The antimicrobial activity spectrum of the WW peptide series was performed on a panel of Gram-positive and -negative bacteria using the standard broth micro-dilution method with minor modifications as described. […] There was a small change in the case of Pseudomonas aeruginosa and Acinetobacter baumannii up to two-fold. Four-fold changes were found for Staphylococcus aureus, Staphylococcus epidermidis, Escherichia coli, and Bacillus subtilis. However, we observed over eight-fold MIC changes for Klebsiella pneumoniae and vancomycin-resistant enterococcus (VRE). […] We also observed more than eight-fold changes in minimal bacterial killing concentrations.
(§2) The antibacterial activity of peptides was evaluated using a standard broth microdilution protocol with minor modifications as previously described. In brief, logarithmic phase bacterial cultures (i.e., optical density at 600 nm ≈ 0.5) were diluted to OD600~0.001 and partitioned into a 96-well polystyrene microplate at 90 μL per well. After treatment with 10 μL of peptide solutions two-fold diluted to various concentrations, microplates were incubated at 37 °C overnight and read on a ChroMate 4300 Microplate Reader at 630 nm (GMI, Ramsey, MN). […] Minimal bactericidal concentration (MBC) was determined by plating the clear wells at MIC or above. The peptide concentration that caused no bacterial growth on the petri dish is MBC.

E. coli K12 = assay type: cell-based, Escherichia coli; conditions: K12
Protocol: as §1, §2

S. aureus USA300 = assay type: cell-based, Staphylococcus aureus; conditions: USA300
Protocol: as §2

K. pneumonia ATCC 13883 = conditions: cited from earlier work
Text: Table 2 Antibacterial activities of the WW peptides against various bacteria. | column: Minimal Inhibitory Concentration (MIC, μM) / KP ^a

[4] = tested on: monkey kidney Vero E6 cells; assay type: cell-based
Protocol: Peptides were assayed for potential in vitro toxicity against human keratinocytes (HaCaT) and THP-1 cells as previously described. THP-1 monocytes were differentiated into macrophages by adding 30 ng/mL of phorbol 12-myristate 13-acetate (PMA; Sigma-Aldrich) to RPMI 1640 supplemented with 10% fetal calf serum culture (FCS) medium for 16 h. Briefly, cells were seeded at a density of 3 × 10^4 per well in a tissue culture 96-well plate in DMEM/RPMI supplemented with 10% fetal bovine serum (FBS), and incubated at 37 °C in a 5% CO2 atmosphere for 24 h. African green monkey kidney Vero E6 cells were cultivated in EMEM in the same manner. Before antimicrobial treatment, wells were replaced with serum free media and treated with peptides at different concentrations for one hour. After incubation, the cells were washed and incubated with 100 μL of DMEM media containing 20 μL of 3-(4,5-dimethylthiazol-2-yl)-5-(3-carboxymethoxyphenyl)-2-(4-sulfophenyl)-2H-tetrazolium (MTS) reagent for two hours at 37 °C. […] Absorbance readings at 492 nm were taken using a ChroMate microplate reader (GMI, Ramsey, MN, USA).

S. aureus USA300 LAC [5] = assay type: cell-based, Staphylococcus aureus; conditions: USA300
Protocol: (§3) To gain additional insight, we also compared the effects of physiological saline and human serum on the antibacterial activities of WW291-WW298 using both E. coli and S. aureus (Table 3). In our assays, salts and serum were present during the entire course of the experiment. […] Thus, WW295 and WW298 stand out in terms of activity robustness (bold in Table 3).
as §2

A. baumannii B28-16 = assay type: cell-based, Acinetobacter baumannii; conditions: B28-16
Protocol: as §1, §2

S. aureus Mu50 = assay type: cell-based, Staphylococcus aureus; conditions: Mu50
Protocol: as §1, §2

human red blood cells = assay: Hemolytic assay; assay type: cell-based; conditions: red cells of human
Protocol: (§4) Hemolytic assays of peptides were performed as previously described. Briefly, human red blood cells (hRBCs) obtained from UNMC Blood Bank, or chicken or porcine blood cells purchased from commercial sources as previously described, were washed three times with phosphate buffer saline (PBS) and diluted to a 2% solution (V/v). After peptide treatment, incubation at 37 °C for one hour, and centrifugation at 13,000 rpm, aliquots of the supernatant were carefully transferred to a fresh 96-well microplate. The amount of hemoglobin released was measured at 545 nm. The percent lysis was calculated by assuming 100% release when human blood cells were treated with 2% Triton X-100, and 0% release when incubated with PBS buffer. The peptide concentration that caused 50% lysis of hRBCs is defined as HC50.

chicken red blood cells = assay: Hemolytic assay; assay type: cell-based
Protocol: as §4

E. coli ATCC 25922 = assay type: cell-based, Escherichia coli; conditions: ATCC 25922
Protocol: as §3, §2

E. faecium VRE = assay type: cell-based; conditions: VRE
Protocol: as §1, §2

B. subtilis 167 = assay type: cell-based, Bacillus subtilis; conditions: 167
Protocol: as §1, §2

With CCCCCCCCCC(=O)N[C@@H](Cc1c[nH]c2ccccc12)C(=O)N[C@H](CC(N)=O)C(=O)N[C@@H](CC(=O)O)C(=O)N[C@@H]1C(=O)NCC(=O)N[C@@H](CCCN)C(=O)N[C@@H](CC(=O)O)C(=O)N[C@H](C)C(=O)N[C@@H](CC(=O)O)C(=O)NCC(=O)N[C@H](CO)C(=O)N[C@@H]([C@H](C)CC(=O)O)C(=O)N[C@@H](CC(=O)c2ccccc2N)C(=O)O[C@@H]1C [daptomycin, reference compound] the “membrane depolarization (DiBAC4(3) fluorescence)” value (S. aureus USA300 LAC [1]) was “significantly less membrane depolarization”, the “inhibition of MRSA adherence” value (S. aureus USA300 LAC [2]) was ~ 50% and the “disruption of established biofilms (24 h)” value (S. aureus USA300 LAC [3]; 3.1 µM) was “much less effective than WW298”. The “disruption of established biofilms (24 h)” value (S. aureus USA300 LAC [3]; 6.25 µM) was “eradicating almost all the established biofilm” and the “outer and inner membrane permeation (nitrocefin 490 nm, ONPG 420 nm)” value (E. coli ML35p) was “poor in membrane permeation”.

With WWWLRKIW [WW291] the “Minimal Inhibitory Concentration (MIC), PA” value (P. aeruginosa PAO1) was 50 µM, the “Minimal Inhibitory Concentration (MIC), EC” value (E. coli K12) was 6.2 to 12.5 µM and the “MBC, USA300” value (S. aureus USA300) was 6.2 µM. The “Minimal Inhibitory Concentration (MIC), KP” value (K. pneumonia ATCC 13883) was 12.5 µM, the “Vero Cells, concentration that caused 50% cell death (LC50)” value [4] was 100 µM and the “MIC, +150 mM NaCl” value (S. aureus USA300 LAC [5]) was 3.1 µM. The “MIC, +10% Human Serum” value (S. aureus USA300 LAC [5]) was 25 µM, the “MIC, TSB” value (S. aureus USA300 LAC [5]) was 3.1 µM and the “Minimal Inhibitory Concentration (MIC), AB” value (A. baumannii B28-16) was 6.25 µM. The “Minimal Inhibitory Concentration (MIC), SA” value (S. aureus Mu50) was 3.1 µM, the “Human RBC, concentration that caused 50% red blood cell lysis (HC50)” value (human red blood cells) was 30 µM and the “Chicken RBC, concentration that caused 50% red blood cell lysis (HC50)” value (chicken red blood cells) was 50 µM. For the same molecule, the “MIC, +150 mM NaCl” value (E. coli ATCC 25922) was 12.5 µM, the “MIC, +10% Human Serum” value (E. coli ATCC 25922) was >25 µM and the “MIC, TSB” value (E. coli ATCC 25922) was 6.2 to 12.5 µM. For the same molecule, the “Minimal Inhibitory Concentration (MIC), VRE” value (E. faecium VRE) was 25 µM and the “Minimal Inhibitory Concentration (MIC), BS” value (B. subtilis 167) was 6.25 µM.
